Test results: PMC7176276, “Elucidating the possible mechanism of action of some pathogen box compounds against Leishmania donovani” (PLoS Neglected Tropical Diseases, 2020)

Assays:
[1] = tested on: Leishmania donovani promastigotes; test: In vitro antileishmanial activity assay, promastigotes (MTT); type: cell-based; conditions: for Therapeutic Index (TC50/IC50) promastigotes: TC50 RAW 264.7 / IC50 promastigotes
[2] = tested on: RAW 264.7 macrophage cell line; test: Cytotoxicity test against RAW macrophage cell line using MTT assay; type: cell-based, murine; conditions: RAW 264.7, 48 hours
Description: A murine macrophage cell line (RAW 264.7) was cultured in DMEM medium supplemented with penicillin G sodium (100 μg/mL), streptomycin sulfate (100 μg/mL) and 10% FBS. Macrophages at a density of 1 x 10^6 cells/mL were incubated at different concentrations (ranging from 0.39–100 μg/mL) of the compounds for 48 hours in a CO2 incubator (5% CO2, 37° C). Macrophages without any treatment were taken as negative control and amphotericin B was used as positive control. At the termination of the assay, MTT was added and incubated for an additional 3 hours. Acidified isopropanol was added to the set-up to solubilize the formazan crystals formed by the viable cells. The intensity of formazan formation was read on an Elisa plate reader (Varioskan Lux Elisa microplate reader, Thermo Fischer Scientific, USA) at 570 nm. The 50% cytotoxic concentrations (CC50) of the compounds were determined by analysis of dose-response curves. Selectivity index or therapeutic index was calculated as a ratio of CC50 RAW 264.7/IC50 L. donovani promastigotes or amastigotes.

[3] = tested on: Leishmania donovani promastigotes; test: Growth kinetics assay against promastigotes; type: cell-based; conditions: for incubation time after which decline in the parasite population was observed: promastigotes, 1μg/mL
Description: Promastigotes of L. donovani (2 x 10^4 cells) were incubated at 25° C in the presence of the test compounds (at 1μg/mL for each compound) in M199 containing 10% FBS (complete medium). Promastigotes treated with amphotericin B (0–50 μg/ml) served as positive control while untreated promastigotes in the medium alone served as negative control. Aliquots from treated and control parasites were diluted in 0.02 M PBS (pH 7.2) and the viable cells counted daily for 5 days using a Neubauer haemocytometer and a phase-contrast microscope under a 40x objective.

[4] = tested on: Leishmania donovani amastigotes; test: In vitro antileishmanial activity assay, macrophage-amastigotes model (MTT); type: cell-based; conditions: TC50 RAW 264.7 / IC50 amastigotes
Description: Leishmania donovani (MHOM/SD/62/1S strain) was a kind gift from Dr. Yamthe Lauve (Bei Resources NIAID, NIH). The promastigotes were cultured in M199 medium supplemented with 10% heat-inactivated fetal bovine serum (FBS), penicillin G sodium (100 μg/mL) and streptomycin sulfate (100 μg/mL) at 25° C and subcultured every 72 hours in the same medium at a mean density of 1 x 10^5 cells/mL [9]. The murine macrophage cell line RAW 264.7 (RIKEN BioResource Centre Cell Bank, Japan) were kindly provided by Professor Regina Appiah-Opong of the Clinical Pathology Department, Noguchi Memorial Institute for Medical Research, Ghana. RAW 264.7 were grown at 37° C in DMEM medium (pH 7.4) supplemented with 10% heat-inactivated FBS for 48–72 hours in 5% CO2 and subcultured in fresh DMEM medium at a mean density of 1 x 10^5 cells/mL.
Amphotericin B was used as a reference antileishmanial drug (positive control). RAW 264.7 macrophage cells were infected with promastigotes at a density of 1:10 ratio for 12 hours, after which the non-phagocytosed promastigotes were discarded (by aspirating them alongside the media) and the amastigote cells within the macrophages were treated with the compounds (in fresh complete media) to test their growth inhibitory activity using the method described previously. Parasite viability was assessed using the 3-(4,5-Dimethylthiazol-2-yl)-2,5-diphenyltetrazolium bromide (MTT) method in which the rate of formazan crystal formation was used as an index of cell viability as described by Mosmann. Fluorescence was measured with a Varioskan Lux Elisa microplate reader (Thermo Fischer Scientific, USA) at a wavelength of 570 nm. The fluorescence counts were plotted against the drug concentrations and the 50% inhibitory concentration (IC50) was determined by analysis of the dose-response curves using excel.

human red blood cells = test: Haemolysis assay against the human red blood cells; type: cell-based; conditions: 2% haematocrit, 3 hours
Description: The haemolytic effect of the compounds were tested against the human red blood cells at a density of 2% haematocrit. The method described by Kazi et al was used with slight modification. In this study, human red blood cells were used, the respective test compounds were incubated for 3 hours and 1% triton X100 served as the positive control. At the end of the assay the supernatant was read on a microtiter plate reader (Varioskan Lux Elisa microplate reader, Thermo Fischer Scientific, USA) at 415 nm. The 50% haemolytic concentration (HC50) of the compounds were determined by analysis of dose-response curves.

[5] = tested on: Leishmania donovani promastigotes; test: Growth reversibility assay (cytocidal/cytostatic) against promastigotes; type: cell-based; conditions: for cytocidal or cytostatic effect: growth reversibility profile after drug withdrawal; for growth reversal / reversibility of growth inhibition: promastigotes washed after 5 days of treatment; for growth reversal: regrown 4 days in fresh medium; for reversibility of growth inhibition: regrown 4 days
Description: However, to confirm the cytocidal or cytostatic effect of the test compounds, the treated and untreated parasites after 5 days of incubation were washed twice with fresh M199 and then resuspended in complete M199 media and allowed to grow further at 25° C; the viable promastigotes were enumerated microscopically after 4 days.

[6] = tested on: Leishmania donovani promastigotes; test: Morphological and mitochondrion integrity analysis by fluorescence microscopy (DAPI, MitoTracker); type: cell-based; conditions: 1μg/mL; for parasite cells with degeneration/disintegration of DNA (nucleus, kinetoplast) and mitochondrion: 72 hours
Description: Leishmania donovani promastigotes (2 x 10^4 cells) were treated with the test compounds at 1μg/mL (point concentration). They were then incubated for 24 hours and 72 hours in order to study their morphological changes and to see the changes in their mitochondrial integrity using DAPI and MitoTracker red dye respectively. The assay was performed using the methods described by Amisigo et al with slight modifications. Here the Mitotracker red dye was added to the pelleted promastigote cells at a concentration of 100 nM, resuspended in 1 mL of FBS-free M199 media with 1% BSA (Bovine Serum Albumin) and incubated for 30 minutes.

[7] = tested on: Leishmania donovani promastigotes; test: Cell cycle progression analysis by flow cytometry; type: cell-based; conditions: 2x IC50, 24 hours; for change in the number of cells at the G2/M phase: versus untreated
Description: Guava Cell Cycle Reagent (catalog No. 4500–0220) was used to stain the cells and the number of cells in G0/G1, S and G2/M phases were determined. Briefly, treated and untreated cells were pelleted and fixed in 70% ice-cold ethanol for an hour at -20°C, the suspended cells were then pelleted by centrifugation at 1500 rpm for 10 minutes. The supernatants were discarded, and the pelleted cells were washed twice with 1X PBS to ensure total removal of the ethanol. To a 200 μL of the cell pellets, a 200 μL of the Gauva Cell Cycle Reagent was added and incubated at room temperature (25°C) for 30 minutes in the dark. Cell distribution at the distinct cell cycle phases were measured using flow cytometer (BD LSR Fortessa X-20 analyzer BD Biosciences San Jose, CA 95131 USA). Data generated were analyzed using the FlowJo V10 software.

[8] = tested on: Leishmania donovani promastigotes; test: Apoptotic and necrotic potentials, Annexin V-FITC/PI flow cytometry; type: cell-based; conditions: 2x IC50, 24 hours; far less than in the untreated cells
Description: Briefly, treated promastigote cells were washed twice with cold 1x PBS and then resuspended in 1x binding buffer at a cell density of 1 x 10^6 cells/mL. To a 100 μL of the suspended cells, 5 μL of Annexin V-FITC and 5 μL of Propidium Iodide (PI) were added. The mixture was gently vortexed and allowed to incubate for 15 minutes at room temperature (25°C) in the dark. To the set-up, 400 μL of 1x binding buffer was added and the assay was read by flow cytometry (BD LSR Fortessa X-20 analyzer BD Biosciences, San Jose, CA 95131 USA) and the results analyzed using FlowJo version 10 software.

[9] = tested on: Leishmania donovani promastigote; parameters: method as in PMID 25690568; conditions: earlier report ref 18; cited from earlier work
[10] = tested on: Leishmania donovani amastigote; parameters: method as in PMID 25690568; conditions: earlier report ref 18; cited from earlier work
L. major = tested on: L. major; parameters: method as in PMID 25690568; conditions: earlier report ref 18; cited from earlier work
L. infantum = tested on: L. infantum; parameters: method as in PMID 25690568; conditions: earlier report ref 18; cited from earlier work

SMILES | Therapeutic Index (TC50/IC50) promastigotes [1] | TC50(μM)±SD RAW [2] [µM] | Therapeutic Index (TC50/IC50) amastigotes [4] | HC50 (50% haemolytic concentration) (human red blood cells) [µg/mL] | incubation time after which decline in the parasite population was observed [3] [h] | cytocidal or cytostatic effect [5] | growth reversal [5] [%] | parasite cells with degeneration/disintegration of DNA (nucleus, kinetoplast) and mitochondrion [6] | reversibility of growth inhibition [5] | parasite cells showing no obvious DNA and mitochondrion abnormality ([6]; 24 hours) | cells at the S phase [7] [%] | change in the number of cells at the G2/M phase [7] | apoptosis and necrosis of promastigotes [8] | also measured
C[C@@H]1[C@H](O)[C@@H](C)/C=C/C=C/C=C/C=C/C=C/C=C/C=C/[C@H](O[C@@H]2O[C@H](C)[C@@H](O)[C@H](N)[C@@H]2O)C[C@@H]2O[C@](O)(C[C@@H](O)C[C@@H](O)[C@H](O)CC[C@@H](O)C[C@@H](O)CC(=O)O[C@H]1C)C[C@H](O)[C@H]2C(=O)O [Amphotericin B, amphotericin B, reference compound] | 3.0 | 15.75 ± 0.03 |  |  |  |  |  |  |  |  |  |  |  | IC50 ([1]; Leishmania donovani, 96 h, promastigotes, 4 days at 25° C, MTT, mean ±SD of three experiments): 5.3 ± 0.03 µM; effect on growth of promastigotes (growth kinetics) ([3]; viable cells counted daily for 5 days, compared with untreated control): no viable cells observed after 24 hours
CNC(=O)C1Cc2ccccc2N1C(=O)Cc1ccc(F)cc1 (centres unmarked) [MMV188296] | 914 |  | 237 | >100 | 48 | cytostatic | 56.5 | more than 90% |  |  |  |  |  | parasite population with loss in mitochondrion integrity ([6]; 24 hours): 40%
CC(C)(C)OC(=O)N1CCN(c2[nH]nnc2-c2ccc(Oc3ccccc3)cc2)CC1 [MMV676057] | 432 |  | 16 | >100 | 48 | cytocidal |  | about 85% | not reversible | About 70% | 23 | no significant change | slight apoptosis and necrosis | cells at the G0-G1 phase ([7]; untreated 30%): 23%; IC50 [9]: 1.3 µM; IC50 [10]: > 10 µM; IC50 (L. major): 13 µM; IC50 (L. infantum): 10.2 µM
Cc1nn2c(=O)c3c([nH]c2c1-c1ccc(Cl)cc1)CCCC3 [MMV688776] | 19 | 50 ± 0.02 | 1 | >100 | 24 | cytostatic | 57.9 | About 70% |  | About 70% |  |  |  | 
CCc1nn(C)c(C(=O)NCc2ccc(Oc3ccc(C)cc3)cc2)c1Cl [MMV688934] | 416 |  | 453 | >100 | 24 | cytostatic | 32.3 | more than 90% |  |  |  |  |  | promastigotes showing enlargement of the nucleus and kinetoplast with the mitochondria losing its normal shape ([6]; 24 hours): 70%
CC(C)(C)C(O)C(Oc1ccc(-c2ccccc2)cc1)n1cncn1 (centres unmarked) [MMV688942] | 43 |  | 16 | >100 | 48 | cytocidal |  | 85% | not reversible |  | 28 | no significant change | slight apoptosis and necrosis | parasites showing loss of kinetoplast ([6]; 24 hours): about 30%
